According to patent publication US10294202B2, “Pyrrolidinones as herbicides” (FMC Corporation, priority 2013, dated 2019):

Assays:
kochia = assay: Test A pre-/postemergence herbicide test; format: in vivo, Kochia scoparia; settings: for Plant response rating, Kochia: 0 to 100 scale
Summary of the method: (§1)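 Visual injury ratings, 0 = no effect, 100 = complete control, taken ~10 days after treatment against untreated greenhouse controls. Preemergence: directed soil spray onto seeded loam/sand pots. Postemergence: spray onto plants at one- to two-leaf stage, 2–10 cm tall.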

pigweed = assay: Test A pre-/postemergence herbicide test; format: in vivo, Amaranthus retroflexus; settings: for Plant response rating, Pigweed: 0 to 100 scale
Summary of the method: as §1

corn = assay: Test A pre-/postemergence herbicide test; format: in vivo, Zea mays; settings: Postemergence; for Plant response rating, Corn: 125 g ai/ha, 0 to 100 scale, 0 is no effect, 100 is complete control; for Corn plant response rating (0 to 100 scale, 0 is no effect, 100 is complete control): 500 g ai/ha
Summary of the method: as §1

ryegrass, Italian = assay: Test A pre-/postemergence herbicide test; format: in vivo, Lolium multiflorum; settings: for Plant response rating, Ryegrass, Italian: 0 to 100 scale
Summary of the method: as §1

ragweed = assay: Test A pre-/postemergence herbicide test; format: in vivo, Ambrosia elatior; settings: for Plant response rating, Ragweed: 0 to 100 scale
Summary of the method: as §1

rice = assay: Test B flooded paddy test; format: in vivo, Oryza sativa; settings: 500 g ai/ha, Flood; scale of 0 to 100 where 0 is no effect and 100 is complete control
Summary of the method: (§2)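 Visual ratings from 0, meaning no effect, up to 100, meaning complete control, were made by comparison with untreated controls 13 to 15 days after treatment. Test compounds went straight into floodwater standing 3 cm over the soil of pots holding 2-leaf seedlings.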

wheat = assay: Test A pre-/postemergence herbicide test; format: in vivo, Triticum aestivum; settings: Postemergence; for Plant response rating, Wheat: 125 g ai/ha, 0 to 100 scale, 0 is no effect, 100 is complete control; for Wheat plant response rating (0 to 100 scale, 0 is no effect, 100 is complete control): 500 g ai/ha
Summary of the method: as §1

sedge, umbrella = assay: Test B flooded paddy test; format: in vivo, Cyperus difformis; settings: 500 g ai/ha, Flood; scale of 0 to 100 where 0 is no effect and 100 is complete control
Summary of the method: as §2

barnyardgrass [1] = assay: Test A pre-/postemergence herbicide test; format: in vivo, Echinochloa crus-galli; settings: for Plant response rating, Barnyardgrass: 0 to 100 scale
Summary of the method: as §1

barnyardgrass [2] = assay: Test B flooded paddy test; format: in vivo, Echinochloa crus-galli; settings: 500 g ai/ha, Flood; scale of 0 to 100 where 0 is no effect and 100 is complete control
Summary of the method: as §2

ducksalad = assay: Test B flooded paddy test; format: in vivo, Heteranthera limosa; settings: 500 g ai/ha, Flood; scale of 0 to 100 where 0 is no effect and 100 is complete control
Summary of the method: as §2

giant foxtail = assay: Test A pre-/postemergence herbicide test; format: in vivo, Setaria faberii; settings: for Plant response rating, Foxtail, Giant: 0 to 100 scale
Summary of the method: as §1

galium = assay: Test A postemergence herbicide test; format: in vivo, Galium aparine; settings: for Plant response rating, Galium: 125 g ai/ha, 0 to 100 scale, 0 is no effect, 100 is complete control; for Galium plant response rating (0 to 100 scale, 0 is no effect, 100 is complete control): 500 g ai/ha
Summary of the method: (§3)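 Young potted plants in a loam–sand mix, one- to two-leaf stage and 2–10 cm tall, receive the test chemical postemergence and stay in a greenhouse for approximately 10 days. Injury is then judged by eye against untreated plants, scored 0 (none) to 100 (complete control).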

blackgrass = assay: Test A postemergence herbicide test; format: in vivo, Alopecurus myosuroides; settings: for Plant response rating, Blackgrass: 125 g ai/ha, 0 to 100 scale, 0 is no effect, 100 is complete control; for Blackgrass plant response rating (0 to 100 scale, 0 is no effect, 100 is complete control): 500 g ai/ha
Summary of the method: as §3

[3] = 125 g ai/ha, visual rating, 0 no effect, 100 complete control, approximately 10 days, preemergence
[4] = Postemergence, 125 g ai/ha, 0 is no effect, 100 is complete control
[5] = preemergence, 500 g ai/ha, 0 is no effect and 100 is complete control

Row | Compound | Plant response rating, Kochia (kochia; [3]) | Plant response rating, Kochia (kochia; [4]) | Kochia plant response rating (0 to 100 scale, 0 is no effect, 100 is complete control) (kochia; Postemergence, 500 g ai/ha) | Plant response rating, Kochia (kochia; [5]) | Plant response rating, Pigweed (pigweed; [3]) | Plant response rating, Pigweed (pigweed; [4]) | Pigweed plant response rating (0 to 100 scale, 0 is no effect, 100 is complete control) (pigweed; Postemergence, 500 g ai/ha) | Plant response rating, Pigweed (pigweed; [5]) | Plant response rating, Corn (corn) | Corn plant response rating (0 to 100 scale, 0 is no effect, 100 is complete control) (corn) | Plant response rating, Ryegrass, Italian (ryegrass, Italian; [3]) | Plant response rating, Ryegrass, Italian (ryegrass, Italian; [4]) | Ryegrass, Italian plant response rating (0 to 100 scale, 0 is no effect, 100 is complete control) (ryegrass, Italian; Postemergence, 500 g ai/ha) | Plant response rating, Ryegrass, Italian (ryegrass, Italian; [5]) | Plant response rating, Ragweed (ragweed; [3]) | Plant response rating, Ragweed (ragweed; [4]) | Ragweed plant response rating (0 to 100 scale, 0 is no effect, 100 is complete control) (ragweed; Postemergence, 500 g ai/ha) | Plant response rating, Ragweed (ragweed; [5]) | Plant response rating, Rice (rice) | Plant response rating, Wheat (wheat) | further results
1 | Cc1ccccc1NC(=O)C1C(=O)NCC1c1cccc(OC(F)F)c1 (stereo not drawn) [Compound 230] | 0 | 0 | 40 | 30 | 0 | 0 | 0 | 20 | 20 | 40 | 0 | 0 | 20 | 30 | 0 | 0 | 30 | 20 | 0 | 20 | Wheat plant response rating (0 to 100 scale, 0 is no effect, 100 is complete control) (wheat): 20; Plant response rating, Sedge, Umbrella (sedge, umbrella): 0; Plant response rating, Barnyardgrass (barnyardgrass [1]; [3]): 30; Plant response rating, Barnyardgrass (barnyardgrass [1]; [4]): 60; Barnyardgrass plant response rating (0 to 100 scale, 0 is no effect, 100 is complete control) (barnyardgrass [1]; Postemergence, 500 g ai/ha): 90; Plant response rating, Barnyardgrass (barnyardgrass [1]; [5]): 90; Plant response rating, Barnyardgrass (barnyardgrass [2]): 60; Plant response rating, Ducksalad (ducksalad): 75; Plant response rating, Foxtail, Giant (giant foxtail; [3]): 90; Plant response rating, Foxtail, Giant (giant foxtail; [4]): 70; Foxtail, Giant plant response rating (0 to 100 scale, 0 is no effect, 100 is complete control) (giant foxtail; Postemergence, 500 g ai/ha): 90; Plant response rating, Foxtail, Giant (giant foxtail; [5]): 90; Plant response rating, Galium (galium): 20; Galium plant response rating (0 to 100 scale, 0 is no effect, 100 is complete control) (galium): 50; Plant response rating, Blackgrass (blackgrass): 20; Blackgrass plant response rating (0 to 100 scale, 0 is no effect, 100 is complete control) (blackgrass): 50
2 | O=C1NCC(c2cccc(OC(F)F)c2)C1C(=O)Nc1ccccc1C(F)(F)F (stereo not drawn) [Compound 222] | 0 | 0 | 40 | 50 | 0 | 0 | 20 | 30 | 20 | 60 | 20 | 20 | 30 | 50 | 0 | 0 | 40 | 20 | 0 | 20 | Wheat plant response rating (0 to 100 scale, 0 is no effect, 100 is complete control) (wheat): 30; Plant response rating, Sedge, Umbrella (sedge, umbrella): 0; Plant response rating, Barnyardgrass (barnyardgrass [1]; [3]): 70; Plant response rating, Barnyardgrass (barnyardgrass [1]; [4]): 70; Barnyardgrass plant response rating (0 to 100 scale, 0 is no effect, 100 is complete control) (barnyardgrass [1]; Postemergence, 500 g ai/ha): 90; Plant response rating, Barnyardgrass (barnyardgrass [1]; [5]): 90; Plant response rating, Barnyardgrass (barnyardgrass [2]): 60; Plant response rating, Ducksalad (ducksalad): 100; Plant response rating, Foxtail, Giant (giant foxtail; [3]): 90; Plant response rating, Foxtail, Giant (giant foxtail; [4]): 80; Foxtail, Giant plant response rating (0 to 100 scale, 0 is no effect, 100 is complete control) (giant foxtail; Postemergence, 500 g ai/ha): 90; Plant response rating, Foxtail, Giant (giant foxtail; [5]): 90; Plant response rating, Galium (galium): 30; Galium plant response rating (0 to 100 scale, 0 is no effect, 100 is complete control) (galium): 60; Plant response rating, Blackgrass (blackgrass): 30; Blackgrass plant response rating (0 to 100 scale, 0 is no effect, 100 is complete control) (blackgrass): 60
3 | O=C1NCC(c2ccc(OC(F)F)cc2)C1C(=O)Nc1ccccc1Cl (stereo not drawn) [Compound 226] | 0 | 30 | 50 | 30 | 0 | 0 | 0 | 30 | 0 | 0 | 0 | 0 | 20 | 20 | 0 | 0 | 0 | 0 | 0 | 0 | Wheat plant response rating (0 to 100 scale, 0 is no effect, 100 is complete control) (wheat): 0; Plant response rating, Sedge, Umbrella (sedge, umbrella): 0; Plant response rating, Barnyardgrass (barnyardgrass [1]; [3]): 50; Plant response rating, Barnyardgrass (barnyardgrass [1]; [4]): 30; Barnyardgrass plant response rating (0 to 100 scale, 0 is no effect, 100 is complete control) (barnyardgrass [1]; Postemergence, 500 g ai/ha): 80; Plant response rating, Barnyardgrass (barnyardgrass [1]; [5]): 90; Plant response rating, Barnyardgrass (barnyardgrass [2]): 0; Plant response rating, Ducksalad (ducksalad): 100; Plant response rating, Foxtail, Giant (giant foxtail; [3]): 70; Plant response rating, Foxtail, Giant (giant foxtail; [4]): 70; Foxtail, Giant plant response rating (0 to 100 scale, 0 is no effect, 100 is complete control) (giant foxtail; Postemergence, 500 g ai/ha): 80; Plant response rating, Foxtail, Giant (giant foxtail; [5]): 90; Plant response rating, Galium (galium): 20; Galium plant response rating (0 to 100 scale, 0 is no effect, 100 is complete control) (galium): 20; Plant response rating, Blackgrass (blackgrass): 20; Blackgrass plant response rating (0 to 100 scale, 0 is no effect, 100 is complete control) (blackgrass): 30
